Reference: EP1503771B1, “SEDATIVE MATERIALS AND TREATMENTS” (University of Strathclyde, priority 2002, dated 2003)
Marks after values point to notes of the source that are not given here.

Experiments:
[1] = tested on: BDZ-bs (benzodiazepine binding site in GABAA brain receptor); assay: BDZ-bs binding assay ([3H]-FNZ binding to cerebral cortical membranes); parameters: species or system rat
Method: In vitro binding assays were carried out with various receptors as well as in vivo tests for sedative activity on the various fractions A-K recovered in Example 1 using the known procedures described in detail in the literature for the following receptors: BDZ-bs (benzodiazepine binding site in GABAA brain receptor) (1); 5-hydroxytriptamine-type 1A (5HT1A) (2); 5HT2 (3); AMPA glutamatergic (4); adenosine 1 (5) . In vivo sedation activity was measured by the Hole-board test (6).
The presence of BDZ-bs ligands in the fractions obtained at the end of the preparative fractionation scheme described in Figure 2 was checked by the BDZ-bs binding assay as described in Example 2.
No BDZ-bs ligands were found in the eluates obtained with 20 %, 30 % and 80 % ACN, but they were present in those obtained with 40 % and 50 % ACN. The BDZ-bs ligands distribution obtained is shown in Figure 3 in which the percentage of binding inhibition of [^3H]-FNZ to rat cerebral cortical membranes (averages of duplicated measurements), is shown for 0.05 mL aliquots of the indicated fractions. (Note: Fractions 1-5, 6-10 and 28-32 were collected in bulk; 40 % and 50 % eluates were collected as separate 100 mL fractions. The arrows inside the graph indicate the pools made). […]

male Swiss mice [2] = assay: Hole-board test (sedation); type: in vivo; settings: for Hole-board test N° of Head- dips / Hole-board test N° of rearings / Hole-board test Time head dipping: mice
male Swiss mice [3] = assay: spontaneous locomotor activity (Opto-Varimex apparatus); type: in vivo; settings: for Locomotor Total activity: ambulatory locomotor activity; for Locomotor Activity Total / Locomotor Activity ambulatory: 4 mg/kg, decrement relative to vehicle values
Method: (§1) In all in vivo tests male Swiss mice of 28-30 g were used. The animals were injected i.p. with vehicle, or a solution of the drug, or fraction, 20 min before the assay. The assays were performed in mice i.p. injected with an amount of each fraction equivalent to that obtained from 1 g of dry Valeriana wallichii powder (see Table 3), 20 min before the test. In the case of the remaining aqueous solution (see Figure 2) it was injected at the maximum tolerated dose which was equivalent to that obtained from only 12 mg of dry Valeriana wallichii powder. This low dosage explains the absence of activity recorded in Table 4.
(§2) The following tests were used: spontaneous ambulatory activity counts in an Opto-Varimex apparatus that optically detects and measures locomotor activity; the Hole-board, a well-known test to assay for the sedative behavior (6); and the horizontal wire test to detect myorelaxation as described in detail in the literature (7).
(§3) Mean ±SEM of locomotor activity registered during 5 min session in an Opto-Varimex apparatus and performance of mice in the holeboard test. Wire test was performed after two trials and was registered the number of animals grasped the wire for 3 seconds. Vehicle or 6-methylapigenin were ip administered 20 min before tests. No significant differences were observed using the Student's t test at p>0.05. Table 9 - Anxiolytic effect of 6-methylapigenin measured in the plus-maze test

male Swiss mice [4] = assay: horizontal wire test (myorelaxation); type: in vivo
Method: as §1, §2, §3

mice [5] = assay: sodium thiopental-induced sleeping time; type: in vivo
Method: The effect of the active components in fraction H of Table 3 (ACN 50%, 23-27) and that of the aqueous remaining solution (Table 3) were tested in mice by i.p. administration. The doses were 2 mg per mouse for fraction H and 5 mg per mouse for the aqueous remaining solution fraction B. A small amount of conventional anesthetic (30 mg/kg of thiopental sodium - Biochemie, GmbH, Kundl, Austria) was used to induce a slight sleeping condition in the mice which were monitored to detect any possible enhancement of the sleeping condition by the previous injection of the novel compounds.
Median (interquartile range) of sleeping time of mice given a sodium thiopental i.p. administration (30 mg/kg) 20 min after an i.p. injection of vehicle or 6-methylapigenin. The sleeping time was measured as the time spent between disappearance and reappearance of righting reflex. Table 8 - Effect in different behavioral tests of 6-methylapigenin (sedation tests)

mice [6] = assay: elevated plus-maze test (anxiolysis); type: in vivo; settings: for % open arm entries / % time spent in open arms / arm entries: mice, mean ±SEM
Excerpt: Anti-anxiety as discussed in the present application is based on the fear that mice have for open spaces i.e. the elevated plus-maze assay.

BDZ-bs = assay: GABA-shift of [3H]-FNZ displacement curves; type: binding; settings: for GABA-shift: [3H]-FNZ binding to cortical brain membranes in the presence or absence of 100 µM GABA, n= 3
[7] = 10 mg/kg ip 20 min before test, mean ±SEM
[8] = 10 mg/kg ip 20 min before test, 5 min session, mean ±SEM
[9] = 0.3 mg/kg ip 20 min before test
[10] = mice, 1 mg/kg i.p. 20 min before sodium thiopental 30mg/kg i.p. (Table 20)
[11] = 4 mg/kg, decrement relative to vehicle values
[12] = mice, 4 mg/kg i.p. 20 min before sodium thiopental 30 mg/kg i.p. (Table 10)
[13] = mice, 9 mg/kg i.p. 20 min before sodium thiopental 30 mg/kg i.p. (Table 10)
[14] = mice, hesperidin 2 mg/kg i.p. 20 min before sodium thiopental 30mg/kg i.p. (Table 20)

Cc1c(O)cc2oc(-c3ccc(O)cc3)cc(=O)c2c1O (single isomer, unassigned) [6-methylapigenin]
Scatchard analysis of saturation curves: type of interaction ([1]; [3H] FNZ saturation curves, decline in apparent affinity without changes in Bmax): competitive interaction | Ki ([1]; n= 5 (ligand 1), n= 3 (ligand 2)): 500 ± 170 nM | Hole-board test N° of Head- dips (male Swiss mice [2]; [7]): 7±0.5 | Hole-board test N° of rearings (male Swiss mice [2]; [7]): 28±3 | Hole-board test Time head dipping (male Swiss mice [2]; [7]): 10±1 | sedative effects (male Swiss mice [2]; up to 10 mg/kg in mice): does not have sedative effects | Locomotor Total activity (male Swiss mice [3]; 0.3 mg/kg ip 20 min before test, 5 min session, mean ±SEM): 410±36 | Locomotor Total activity (male Swiss mice [3]; 1 mg/kg ip 20 min before test, 5 min session, mean ±SEM): 463±64 | Ambulatory locomotor activity (male Swiss mice [3]; [8]): 395±43 | Total Locomotor Activity (male Swiss mice [3]; [8]): 552±55 | Wire (male Swiss mice [4]; 10 mg/kg ip, number of animals that grasped the wire for 3 seconds): 5/5 | Sleeping time Median (mice [5]; mice, 6-methylapigenin 1mg/kg (Table 18)): 0 min | Sleeping time Median (mice [5]; mice, 6-methylapigenin 1 mg/kg i.p. 20 min before sodium thiopental 30 mg/kg i.p. (Table 12)): 0 min | Sleeping time (min) median values (mice [5]; mice, i.p., 1 mg/kg, 20 min before sodium thiopental 30 mg/kg i.p. (Table 7)): 0 min | effect on sleeping time (mice [5]; up to 1 mg/kg, mice receiving a sub-hypnotic dose of thiopental): does not affect the sleeping time | anxiolytic properties in the plus-maze assay (mice [6]; dose of 1 mg/kg in mice): clear anxiolytic properties | % open arm entries (mice [6]; [9]): 48±4% | % time spent in open arms (mice [6]; [9]): 42±4% | arm entries (mice [6]; [9]): 17±2 | % open arm entries (mice [6]; 1 mg/kg ip 20 min before test): 60±6 % | % time spent in open arms (mice [6]; 1 mg/kg ip 20 min before test): 58±5 % | arm entries (mice [6]; 1 mg/kg ip 20 min before test): 14±2 | GABA-shift (BDZ-bs): 1.6-2.0 | behaviour at the BDZ-bs from GABA-shift (BDZ-bs; presence or absence of 100 µM GABA): behaves as an agonist

O=c1cc(-c2ccc(O)cc2)oc2cc(O)cc(O)c12 [Apigenin, reference compound]
Sleeping time Median (mice [5]; [10]): 0 min | Sleeping time Median (min) (mice [5]; mice, 1 mg/kg i.p. 20 min before sodium thiopental 30mg/kg i.p. (Table 20), listed as apigenin): do not produce any sleeping time

O=c1cc(-c2ccccc2)oc2cc(O)cc(O)c12 [Chrysin, reference compound]
Sleeping time Median (mice [5]; [10]): 0 min

COc1ccc([C@@H]2CC(=O)c3c(O)cc(O[C@@H]4O[C@H](CO[C@@H]5O[C@@H](C)[C@H](O)[C@@H](O)[C@H]5O)[C@@H](O)[C@H](O)[C@H]4O)cc3O2)cc1O [Citrus hesperidin, hesperidin, reference compound]
Hole-board test N° of Head- dips (male Swiss mice [2]; [11]): -40 percentage | Hole-board test N° of rearings (male Swiss mice [2]; [11]): -22 percentage | Hole-board test Time head dipping (male Swiss mice [2]; [11]): -44 percentage | Locomotor Activity Total (male Swiss mice [3]): -31 percentage | Locomotor Activity ambulatory (male Swiss mice [3]): -30 percentage | Wire (male Swiss mice [4]; 4 mg/kg): 0 percentage | activity relative to the natural isomer from valeriana (mice [5]; estimated from Table 10, sleeping time in mice): approximately 60% | Sleeping time Median (s) (mice [5]; [12]): 660* s | Sleeping time Median (s) (mice [5]; [13]): 1440** s

COc1ccc([C@@H]2CC(=O)c3c(O)cc(O[C@@H]4O[C@H](CO[C@@H]5O[C@@H](C)[C@H](O)[C@@H](O)[C@H]5O)[C@@H](O)[C@H](O)[C@H]4O)cc3O2)cc1O [Hesperidin]
Sleeping time Median (mice [5]; mice, 4 mg/kg (Table 13)): 20 min | Sleeping time Median (mice [5]; [14]): 3.5 min | Sleeping time Median (min) (mice [5]; [14]): 3.5* min

COc1ccc(-c2cc(=O)c3c(O)cc(O[C@@H]4O[C@H](CO[C@@H]5O[C@@H](C)[C@H](O)[C@@H](O)[C@H]5O)[C@@H](O)[C@H](O)[C@H]4O)cc3o2)cc1 [Linarin, 7-[[6-O-(6-deoxy-α-L-mannopyranosyl)-β-D-glucopyranosyl]oxy]-5-hydroxy-2-(4-methoxyphenyl)-4H-benzopyran-4-one]
dose at which hypnotic activity is evident (mice [5]; estimated from Table 16): 7 mg/kg | Sleeping time Median (mice [5]; mice, 4 mg/kg i.p. 20 min before sodium thiopental 30 mg/kg i.p. (Table 16)): 0 min | Sleeping time Median (min) (mice [5]; mice, 7 mg/kg i.p. 20 min before sodium thiopental 30 mg/kg i.p. (Table 16)): 30** min | Sleeping time Median (min) (mice [5]; mice, 14 mg/kg i.p. 20 min before sodium thiopental 30 mg/kg i.p. (Table 16)): 30** min | Sleeping time Median (mice [5]; mice, linarin 4 mg/kg i.p. 20 min before sodium thiopental 30 mg/kg i.p. (Table 17)): 0 min

CC1=C2[C@H](/C=C(\C)C(=O)O)CC[C@@H](C)[C@H]2CC1 [Valerenic acid, reference compound]
Sleeping time Median (mice [5]; mice, valerenic acid 5 mg/kg (Table 18)): 0 min | Sleeping time Median (mice [5]; mice, valerenic acid 5 mg/kg i.p. 20 min before sodium thiopental 30 mg/kg i.p. (Table 17)): 0 min | Sleeping time Median (mice [5]; mice, valerenic acid 15mg/kg i.p. 20 min before sodium thiopental 30 mg/kg i.p. (Table 17)): 0 min

COc1ccc([C@@H]2CC(=O)c3c(O)cc(O[C@@H]4O[C@H](CO[C@@H]5O[C@@H](C)[C@H](O)[C@@H](O)[C@H]5O)[C@@H](O)[C@H](O)[C@H]4O)cc3O2)cc1O [Valeriana hesperidin, Hesperetin 7-rhamnoglucoside; 4H-1-Benzopyran-4-one, 7-[[6-O-(6-deoxy-alpha-L-mannopyranosyl)-beta-D-glucopyranosyl]oxy]-2,3-dihydro-5-hydroxy-2-(3-hydroxy-4-methoxyphenyl)-, (S)-]
Hole-board test N° of Head- dips (male Swiss mice [2]; [11]): -74** percentage | Hole-board test N° of rearings (male Swiss mice [2]; [11]): -58** percentage | Hole-board test Time head dipping (male Swiss mice [2]; [11]): -81## percentage | Locomotor Activity Total (male Swiss mice [3]): -55** percentage | Locomotor Activity ambulatory (male Swiss mice [3]): -58** percentage | Wire (male Swiss mice [4]; 4 mg/kg): 0 percentage | Sleeping time Median (mice [5]; mice, 1 mg/kg i.p. 20 min before sodium thiopental 30 mg/kg i.p. (Table 10)): 0.583 min | Sleeping time Median (s) (mice [5]; mice, 2 mg/kg i.p. 20 min before sodium thiopental 30 mg/kg i.p. (Table 10)): 197* s | Sleeping time Median (s) (mice [5]; [12]): 1290** s | Sleeping time Median (s) (mice [5]; [13]): 1800** s | Sleeping time Median (s) (mice [5]; mice, hesperidin 2 mg/kg i.p. 20 min before sodium thiopental 30 mg/kg i.p. (Table 12)): 179* s | Sleeping time Median (s) (mice [5]; mice, i.p., Dose 3 (unit not given), 20 min before sodium thiopental 30 mg/kg i.p.): 500** s

CN1C(=O)CN=C(c2ccccc2)c2cc(Cl)ccc21 [diazepam, reference compound]
GABA-shift (BDZ-bs): 2.00 ± 0.10
